In patent US20230135894A1, “MK2 DEGRADERS AND USES THEREOF” (Kymera Therapeutics, Inc., priority 2021, published 2023):

Legend:
MK2 [1] = target: T1, MK2 (Homo sapiens, UniProt P49137); experiment: MK2 degradation in human THP-1 monocytic cells (MSD, 24 h); type: cell-based; parameters: endogenous in cells; key to MK2 MSD THP-1 degradation 24 h GMean External Abs DC50: A (<0.001 μM); B (0.001-0.01 μM); C (0.01-0.1 μM); D (>0.1 μM); —: “-”=not tested or inactive; details: for Dmax: THP-1, THP-1 cells; for DC50: read-out: MK2 MSD THP-1 degradation 24 h GMean External Abs DC50
Procedure: MK2 Degradation in Human THP-1 Monoctyic Cells
(§1) The human monocytic cancer cell line THP-1 (ATCC (TIB-202)) was cultured in 96 well plates (Corning 3894) at a density of 200,000 cells per well in 100 microlitres in complete growth medium of RPMI 1640 (Gibco) pus 10% fetal Bovine Serum (Corning) and Penicillin/Streptomycin (SolarBio) at 37 degrees Celsius and 5% CO2. A serial dilution of each compound (usually 3 to 5 fold serial dilutions up to 10 separate concentration points) was added to individual wells from a 10 millimolar stock solution, at a background concentration of 0.1% DMSO and the cells were shaken at 600 rpm for 5 minutes and then were cultured for 24 hours at 37 degrees Celsius and 5% carbon dioxide. Separately, a custom MSD (MesoScaleDiscovery, L15XA-3) plate for detection of human MK2 was prepared by coating the plate with the commercial AbCam ab247272 reagent in 1×Phosphate Buffered Saline at 40 microlitres per well and incubated at 4 degrees Celsius overnight. The next day, the MSD plate was washed with 150 microlitres of Tween buffered saline, blocked with MSD blocking buffer (3% Blocker A from MSD), and washed again.
(§2) The cell plate was centrifuged at 3,200 g for 5 minutes and the supernatant was discarded and 100 microlitres of RIPA lysis buffer (containing proteinase inhibitors, Boston BioProducts BP-115D) was added and the plate was sealed and shaken on ice for 20 minutes. The plate was centrifuged as before and 70 microlitres of sample lysate was added to the MSD plates and they were shaken at room temperature for 1 hour at 600 rpm. The MSD plate was washed 3 times as before and then the primary MK2 detection antibody (Santa Cruz sc-100393) was added at a final concentration of 1 microgram per ml at 25 microlitres per well and shaken at room temperature for 1 hour at 600 rpm.
(§3) After 3 more washes, the secondary detection antibody (SULFO-Tag anti rabbit antibody R32AB-5) was added at a final concentration of 1 microgram per ml at 25 microlitres per well and shaken at room temperature for 1 hour at 600 rpm. After 3 more washes, the 1×MSD (diluted from 5× concentrate with water) reading buffer was added at 150 microlitres per well and read on the MSD instrument Meso Sector S 600.
(§4) The inhibition/degradation curves and DC50 values were plotted and calculated using XL Fit (version v5.3.1.3) using equation 201 and a 4 parameter logistic model whereby fit=(A+((B−A)/(1+((x/C)D))) where A is the Bottom and B is the Top and C is the IC50 and D is the slope and high C is the signal for the DMSO treated cells and Low C is the signal is the signal for the lysis buffer.

MK2 [2] = target: T1, MK2; experiment: MK2 degradation in human SW1353 cells (MSD, 24 h); type: cell-based; parameters: endogenous in cells; host or cells: SW-1353 (ATCC HTB-94); key to MK2 MSD SW1353 degradation 24 h GMean External Abs DC50: A (<0.001 μM); B (0.001-0.01 μM); C (0.01-0.1 μM); D (>0.1 μM); —: “-”=not tested or inactive; key to MK2 MSD SW 1353 24 h Dmax %: —: “-”=not tested or inactive; details: for Dmax: read-out: MK2 MSD SW 1353 24 h Dmax %; for DC50: read-out: MK2 MSD SW1353 degradation 24 h GMean External Abs DC50
Procedure: MK2 Degradation in Human SW1353 Cells
as §1, with “chondrocyte” for “monocytic”, “SW-1353 (ATCC(HTB-94))” for “THP-1 (ATCC (TIB-202))”, “Leibovitz's L-15 Medium” for “RPMI 1640”, “Celsius.” for “Celsius and 5% CO2.”, “Celsius.” for “Celsius and 5% carbon dioxide.”
as §2, §3, §4

T1 sequence (P49137 whole entry): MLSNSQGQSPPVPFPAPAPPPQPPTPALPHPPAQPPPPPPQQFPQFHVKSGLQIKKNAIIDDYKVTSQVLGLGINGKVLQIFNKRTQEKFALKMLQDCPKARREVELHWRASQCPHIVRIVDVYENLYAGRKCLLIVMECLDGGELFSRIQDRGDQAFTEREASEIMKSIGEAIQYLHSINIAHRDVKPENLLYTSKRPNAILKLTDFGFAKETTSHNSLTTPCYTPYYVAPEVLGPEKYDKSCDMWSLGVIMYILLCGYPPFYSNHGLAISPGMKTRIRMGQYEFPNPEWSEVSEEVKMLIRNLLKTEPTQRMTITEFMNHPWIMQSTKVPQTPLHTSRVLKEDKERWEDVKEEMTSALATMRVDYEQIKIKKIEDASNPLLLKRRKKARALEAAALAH

Row | SMILES | Dmax (MK2 [1]) | DC50 (MK2 [1]; THP-1 cells) | Dmax (MK2 [2]) | DC50 (MK2 [2]) | MK2 MSD THP-1 degradation 24 h GMean External Abs DC50 (MK2 [1]; THP-1 cells) | MK2 MSD SW1353 degradation 24 h GMean External Abs DC50 (MK2 [2]) | MK2 MSD SW 1353 24 h Dmax % (MK2 [2])
1 | C[C@@H]1CNc2c(sc3ccc4nc(-c5ccc(N6CCN(CCc7ccc8c(c7)n(C)c(=O)n8C7CCC(=O)NC7=O)CC6)cc5)ccc4c23)C(=O)N1 (stereo partly drawn) [Compound I-280] | > 75% | < 1 nM | > 75% | < 1 nM |  |  | 
2 | COc1cccc(-c2cc(N3CCN(CC4CCN(c5ccc6c(c5)n(C)c(=O)n6C5CCC(=O)NC5=O)CC4)CC3)cc(-n3cc(-c4ccc5c(c4)CCNC5=O)c(N)n3)c2)c1 (stereo not drawn) [Compound I-460] | < 50% | > 100 nM | < 50% | > 100 nM |  |  | 
3 | Cn1c(=O)n(C2CCC(=O)NC2=O)c2ccc(N3CCC(CN4CCN(c5ccc6oc(-c7cc(Nc8ccnc(N)n8)cc8cn[nH]c78)cc6c5)CC4)CC3)cc21 (stereo not drawn) [Compound I-429] | < 50% | > 100 nM | < 50% | > 100 nM |  |  | 
4 | CN1CC2(CNC(=O)c3c2[nH]c2c3CCc3cnc(-c4ccc(CN5CCC(OCC#Cc6cccc7c6n(C)c(=O)n7C6CCC(=O)NC6=O)CC5)cc4F)cc3-2)C1 (stereo not drawn) [Compound I-2] | < 50% | > 100 nM | < 50% | > 100 nM |  |  | 
5 | C[C@@H]1CNc2c(sc3ccc4nc(-c5ccc(N6CCN(CCCc7ccc8c(c7)n(C)c(=O)n8C7CCC(=O)NC7=O)CC6)cc5Cl)ccc4c23)C(=O)N1 (stereo partly drawn) [Compound I-251] | < 50% |  | 50 to 75% | < 1 nM | — |  | 
6 | O=C1CCN(c2cncc3c(N4CCN(CC5CCN(c6ccc(-c7cc(-c8cc9c([nH]8)C8(CC8)CNC9=O)ccn7)cc6)CC5)CC4)cccc23)C(=O)N1 [Compound I-212] | > 75% | 10 to 100 nM | > 75% | 10 to 100 nM |  |  | 
7 | C[C@@H]1CNc2c(sc3ccc4nc(-c5ccc(N6CCN(CCCc7ccc8c(c7)n(C)c(=O)n8C7CCC(=O)NC7=O)CC6)cc5)ccc4c23)C(=O)N1 (stereo partly drawn) [Compound I-173] | > 75% | < 1 nM | > 75% | < 1 nM |  |  | 
8 | C[C@@H]1CNc2c(sc3ccc4nc(N5CCN(C6CC7(CCN(c8cccc9c8n(C)c(=O)n9C8CCC(=O)NC8=O)CC7)C6)CC5)ccc4c23)C(=O)N1 (stereo partly drawn) [Compound I-443] | > 75% | < 1 nM | > 75% | < 1 nM |  |  | 
9 | O=C1CCN(c2cncc3c(N4CCN(CC5CCN(c6ccc(-c7cc(-c8cc9c([nH]8)CCNC9=O)ccn7)cc6)CC5)CC4)cccc23)C(=O)N1 [Compound I-198] | > 75% | 10 to 100 nM |  |  |  | — | —
10 | C[C@@H]1CNc2c(sc3ccc4nc(-c5ccc(N6CCC7(CC6)CN(CCCCCCc6cccc8c6n(C)c(=O)n8C6CCC(=O)NC6=O)C7)cc5)ccc4c23)C(=O)N1 (stereo partly drawn) [Compound I-294] | > 75% | < 1 nM | > 75% | 1 to 10 nM |  |  | 
11 | C[C@@H]1CNc2c(sc3ccc4nc(-c5ccc(N6CCC(CN7CCN(c8cccc9c8n(C)c(=O)n9C8CCC(=O)NC8=O)CC7)CC6)cc5F)ccc4c23)C(=O)N1 (stereo partly drawn) [Compound I-307] | > 75% | 1 to 10 nM | > 75% | 1 to 10 nM |  |  | 
12 | Cn1c(=O)n(C2CCC(=O)NC2=O)c2ccc(N3CCC(CN4CCN(c5cc(C#N)cc(-c6cc(-c7cc8c([nH]7)CCNC8=O)ccn6)c5)CC4)CC3)cc21 (stereo not drawn) [Compound I-225] | < 50% | > 100 nM | < 50% | > 100 nM |  |  | 
13 | C[C@@H]1CN(C)c2c(sc3ccc4nc(-c5ccc(N6CCN(CCCc7ccc8c(c7)n(C)c(=O)n8C7CCC(=O)NC7=O)CC6)cc5)ccc4c23)C(=O)N1 (stereo partly drawn) [Compound I-266] | > 75% | 1 to 10 nM | > 75% | 1 to 10 nM |  |  | 
14 | C[C@@H]1Cc2[nH]c(-c3ccnc(-c4ccc(N5CCC(CN6CCC(c7ccc8c(c7)n(C)c(=O)n8C7CCC(=O)NC7=O)CC6)CC5)cc4)c3)cc2C(=O)N1 (stereo partly drawn) [Compound I-263] | > 75% | < 1 nM | > 75% | < 1 nM |  |  | 
15 | Cn1c(=O)n(C2CCC(=O)NC2=O)c2cccc(CCCCCCCCN3CCC4(CC3)CNC(=O)c3c4[nH]c4c3CCc3cnc(-c5ccccc5F)cc3-4)c21 (stereo not drawn) [Compound I-309] | < 50% | > 100 nM |  | > 100 nM |  |  | —
16 | Cc1cc(N2CCN(CC3CN(c4ccc5c(c4)n(C)c(=O)n5C4CCC(=O)NC4=O)C3)CC2)ccc1-c1ccc2c(ccc3sc4c(c32)NC[C@@H](C)NC4=O)n1 (stereo partly drawn) [Compound I-236] | > 75% | < 1 nM | > 75% | < 1 nM |  |  | 

Second part, led by results:

Row | Dmax (MK2 [1]) | DC50 (MK2 [1]; THP-1 cells) | Dmax (MK2 [2]) | DC50 (MK2 [2]) | MK2 MSD THP-1 degradation 24 h GMean External Abs DC50 (MK2 [1]; THP-1 cells) | MK2 MSD SW1353 degradation 24 h GMean External Abs DC50 (MK2 [2]) | SMILES | MK2 MSD SW 1353 24 h Dmax % (MK2 [2])
17 | > 75% | 1 to 10 nM | > 75% | 1 to 10 nM |  |  | C[C@@H]1CNc2c(sc3ccc4nc(-c5ccc(N6CCC(CN7CCN(c8cccc9c8n(C)c(=O)n9C8CCC(=O)NC8=O)CC7)CC6)cc5)ccc4c23)C(=O)N1 (stereo partly drawn) [Compound I-315] | 
18 | > 75% | < 1 nM | > 75% | < 1 nM |  |  | COc1cc(-c2ccc3c(ccc4sc5c(c43)NC[C@@H](C)NC5=O)n2)cc(N2CCN(CC3CCN(c4ccc5c(c4)n(C)c(=O)n5C4CCC(=O)NC4=O)CC3)CC2)c1 (stereo partly drawn) [Compound I-239] | 
19 | 50 to 75% | 10 to 100 nM | > 75% | 10 to 100 nM |  |  | C[C@@H]1CNc2c(sc3ccc4nc(-c5cc(N6CCN(CCCCCCCCc7cccc8c7n(C)c(=O)n8C7CCC(=O)NC7=O)CC6)ccc5F)ccc4c23)C(=O)N1 (stereo partly drawn) [Compound I-286] | 
20 | > 75% | < 1 nM | > 75% | < 1 nM |  |  | C[C@@H]1CNc2c(sc3ccc4nc(-c5cncc(C6CCN(CC7CCN(c8ccc9c(c8)n(C)c(=O)n9C8CCC(=O)NC8=O)CC7)CC6)c5)ccc4c23)C(=O)N1 (stereo partly drawn) [Compound I-165] | 
21 | > 75% | 1 to 10 nM | > 75% | < 1 nM |  |  | Cn1c(=O)n(C2CCC(=O)NC2=O)c2cccc(C3CCN(CC4CCN(c5ccc(-c6cc(-c7cc8c([nH]7)CCNC8=O)ccn6)c(F)c5)CC4)CC3)c21 (stereo not drawn) [Compound I-137] | 
22 | > 75% | < 1 nM | > 75% | < 1 nM |  |  | C[C@@H]1CNc2c(sc3ccc4nc(-c5ccc(N6CCN(CC7CN(c8ccc9c(c8)n(C)c(=O)n9C8CCC(=O)NC8=O)C7)CC6)cc5Cl)ccc4c23)C(=O)N1 (stereo partly drawn) [Compound I-235] | 
23 | > 75% | < 1 nM | > 75% | < 1 nM |  |  | C[C@@H]1CNc2c(sc3ccc4nc(-c5ccnc(N6CCN(CC7CCN(c8ccc9c(c8)n(C)c(=O)n9C8CCC(=O)NC8=O)CC7)CC6)c5)ccc4c23)C(=O)N1 (stereo partly drawn) [Compound I-278] | 
24 | > 75% | < 1 nM | > 75% | 1 to 10 nM |  |  | C[C@@H]1Cc2[nH]c(-c3ccnc(-c4ccc(N5CCN(CC6CCN(c7cccc8c7n(C)c(=O)n8C7CCC(=O)NC7=O)CC6)CC5)cc4)c3)cc2C(=O)N1 (stereo partly drawn) [Compound I-290] | 
